The results in this text go back to patent publication US4808589A, “Pyrimidone derivatives” (Smith Kline & French Laboratories Limited, priority 1982, dated 1989).

SMILES strings stand for the structures.

This experiment has as its system histamine H2 -receptors. In words: inhibition of histamine-stimulated secretion of gastric acid from lumen-perfused stomachs of rats anaesthetised with urethane. It is filed as in vivo, rat. The following applies: i.v., lumen-perfused stomach of urethane-anaesthetised rats.

Regarding `Cc1ccc(Cc2cnc(CCSCc3csc(NC(=N)N)n3)[nH]c2=O)cn1.Cl.Cl.Cl.O` [Example 1, 2-[2-(2-guanidino-4-thiazolylmethylthio)ethyl]-5-(6-methyl-3-pyridylmethyl)-4-pyrimidone trihydrochloride hydrate], the “dose causing 50% inhibition of maximal acid secretion” value was “less than 1 micromole kg^-1”. As for `Cc1ccc(Cc2cnc(CCSCc3ccc(CN(C)C)o3)[nH]c2=O)cn1` [Example 2, 2-[2-(5-dimethylaminomethyl-2-furanylmethylthio)ethyl]-5-(6-methyl-3-pyridyl-ylmethyl)-4-pyrimidone], the entry is “less than 1 micromole kg^-1”.
